This is an account of results in patent US10414763B2 (CANCER RESEARCH TECHNOLOGY LIMITED, priority 2014, dated 2019).

Bounds are passed on as bounds.

This assay addresses T1, full-length human PKCι (Homo sapiens, UniProt P41743).
T1 construct: Recombinant, full-length human PKCι expressed in Sf21 insect cells is also commercially available; purchased EMD Millipore; host or cells: Sf21 insect cells (baculovirus)
T1 sequence (P41743 1-596): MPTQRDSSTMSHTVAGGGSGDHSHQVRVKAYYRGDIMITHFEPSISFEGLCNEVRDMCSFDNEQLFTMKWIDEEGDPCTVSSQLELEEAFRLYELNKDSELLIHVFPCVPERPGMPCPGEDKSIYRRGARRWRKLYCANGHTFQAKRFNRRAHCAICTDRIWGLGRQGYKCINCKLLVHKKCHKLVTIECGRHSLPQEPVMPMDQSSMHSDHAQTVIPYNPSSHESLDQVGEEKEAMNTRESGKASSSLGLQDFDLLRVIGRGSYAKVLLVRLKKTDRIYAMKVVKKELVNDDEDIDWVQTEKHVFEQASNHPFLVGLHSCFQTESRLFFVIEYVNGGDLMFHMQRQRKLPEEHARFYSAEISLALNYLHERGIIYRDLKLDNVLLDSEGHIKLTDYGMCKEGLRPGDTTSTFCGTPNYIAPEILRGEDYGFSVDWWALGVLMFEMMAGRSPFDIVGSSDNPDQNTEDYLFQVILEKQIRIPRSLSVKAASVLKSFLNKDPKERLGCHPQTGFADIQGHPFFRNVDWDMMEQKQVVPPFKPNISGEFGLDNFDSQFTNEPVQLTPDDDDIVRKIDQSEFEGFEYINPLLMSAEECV
The experiment in a line: PKCι IC50 IMAP fluorescence polarisation assay, full-length enzyme, 150 μM ATP. It counts as biochemical. The conditions noted are these: read-out: IC50 in IMAP assay against full length PKCi at 150 μM ATP. The method, boiled down:
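IMAP fluorescence polarisation kinase assay: 15 pM baculovirus-expressed human PKCiota with 100 nM FAM-pseudosubstrate peptide and 150 μM ATP, 1 h at 25 °C. IMAP detection reagent then 2 h at 25 °C before FP measurement. Inhibition referenced to no-compound and no-enzyme controls for IC50 fitting.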
Background: In fluorescence polarisation assays a small probe gives low polarisation when free and higher when bound to something large.
With `c1ccc2c(c1)oc1nccc(-c3nc(N4CCNCC4)c4c(C5CC5)cncc4n3)c12` [Example 373, 4-(5-Cyclopropyl-4-piperazin-1-yl-pyrido[3,4-d]pyrimidin-2-yl)-benzofuro[2,3-b]pyridine], the IC50 (in general, the concentration that gives 50% inhibition) fell in the range of 1 to 10 µM.

In the case of `CC1(C)CNCC[C@@H]1Nc1nc(-c2ccnc(Nc3ncn(-c4ccccc4)n3)c2)nc2cncc(C3CC3)c12` [Example 243, {5-Cyclopropyl-2-[2-(1-phenyl-1H-1,2,4-triazol-3-ylamino)-pyridin-4-yl]-pyrido[3,4-d]pyrimidin-4-yl}-((S)-3,3-dimethyl-piperidin-4-yl)-amine], the IC50 was less than 0.1 µM.

For the molecule `N[C@H]1C[C@H](Nc2nc(-c3ccnc4[nH]c5ccccc5c34)nc3cncc(C4CCC4)c23)C1` [Example 11, trans-N-[5-Cyclobutyl-2-(9H-pyrido[2,3-b]indol-4-yl)-pyrido[3,4-d]pyrimidin-4-yl]-cyclobutane-1,3-diamine], the IC50 is less than 0.1 µM.

Regarding `CSc1cc2c(-c3nc(N4CCNCC4)c4c(C5CC5)cncc4n3)ccnc2[nH]1` [Example 16, 5-Cyclopropyl-2-(2-methylsulfanyl-1H-pyrrolo[2,3-b]pyridin-4-yl)-4-piperazin-1-yl pyrido[3,4-d]pyrimidine], the IC50 is less than 0.1 µM.

Turning to `CC1(C)CNCCC1Nc1nc(-c2ccnc(Nc3nccc4ccccc34)c2)nc2cncc(C3CCC3)c12` (stereo not shown) [Example 89, {5-Cyclobutyl-2-[2-(isoquinolin-1-ylamino)-pyridin-4-yl]-pyrido[3,4-d]pyrimidin-4-yl}-(3,3-dimethyl-piperidin-4-yl)-amine], the IC50 is less than 0.1 µM.

On to `Fc1ccc(F)c(Nc2cc(-c3nc(N[C@H]4[C@@H]5CNC[C@@H]54)c4c(C5CCC5)cncc4n3)ccn2)n1` [Example 109, (1S,6S)-3-Aza-bicyclo[3.1.0]hex-6-yl-{(R)-5-cyclobutyl-2-[2-(3,6-difluoro-pyridin-2-ylamino)-pyridin-4-yl]-pyrido[3,4-d]pyrimidin-4-yl}-amine], for which the IC50 was less than 0.1 µM.

For the molecule `C[C@H]1CNCC[C@H]1Nc1nc(-c2ccnc3[nH]c4ccccc4c23)nc2cncc(C3CCC3)c12` (racemic) [Example 347, [5-Cyclobutyl-2-(9H-pyrido[2,3-b]indol-4-yl)-pyrido[3,4-d]pyrimidin-4-yl]-(rac-(3S,4R)-3-methyl-piperidin-4-yl)-amine], the IC50 is less than 0.1 µM.

Regarding `CC1(C)CNCC[C@@H]1Nc1nc(-c2ccnc(Nc3cc(F)ccn3)c2)nc2cncc(C3CC3)c12` [Example 392, {5-Cyclopropyl-2-[2-(4-fluoro-pyridin-2-ylamino)-pyridin-4-yl]-pyrido[3,4-d]pyrimidin-4-yl}-((S)-3,3-dimethyl-piperidin-4-yl)-amine], the IC50 is less than 0.1 µM.

Take `C[C@@H]1CNCC[C@H]1Nc1nc(-c2ccnc(Nc3ncc(F)cc3F)c2)nc2cncc(C3CC3)c12` (racemic) [Example 303, {5-Cyclopropyl-2-[2-(3,5-difluoro-pyridin-2-ylamino)-pyridin-4-yl]-pyrido[3,4-d]pyrimidin-4-yl}-(rac-(3R,4R)-3-methyl-piperidin-4-yl)-amine]: the IC50 was less than 0.1 µM.

Consider `CC1(C)CNCC[C@@H]1Nc1nc(-c2ccnc3[nH]c(-c4cc(F)ccc4Cl)cc23)nc2cncc(C3CC3)c12` [Example 229, {2-[2-(2-Chloro-5-fluoro-phenyl)-1H-pyrrolo[2,3-b]pyridin-4-yl]-5-cyclopropyl-pyrido[3,4-d]pyrimidin-4-yl}-((S)-3,3-dimethyl-piperidin-4-yl)-amine], for which the IC50 is less than 0.1 µM.

As for `C[C@@H]1CNCC[C@@H]1Nc1nc(-c2ccnc(Nc3nc(F)ccc3F)c2)nc2cncc(C3CCC3)c12` (single isomer, unassigned) [Example 297, {5-Cyclobutyl-2-[2-(3,6-difluoro-pyridin-2-ylamino)-pyridin-4-yl]-pyrido[3,4-d]pyrimidin-4-yl}-((3R,4S)-3-methyl-piperidin-4-yl)-amine or enantiomer], the IC50 is less than 0.1 µM.

Take `CN(c1nc(-c2ccnc3[nH]c(-c4ccc(Cl)cc4Cl)cc23)nc2cncc(C3CC3)c12)C1CCNCC1(C)C` (stereo not shown) [Example 24, {5-Cyclopropyl-2-[2-(2,4-dichloro-phenyl)-1H-pyrrolo[2,3-b]pyridin-4-yl]-pyrido[3,4-d]pyrimidin-4-yl}-(3,3-dimethyl-piperidin-4-yl)-methyl-amine]: the concentration for half-maximal inhibition (IC50) is less than 0.1 µM.

For `O[C@@H]1CNCC[C@H]1Nc1nc(-c2ccnc3[nH]c4ccccc4c23)nc2cncc(C(F)(F)F)c12` (racemic) [Example 350, rac-(3R,4R)-4-[2-(9H-Pyrido[2,3-b]indol-4-yl)-5-trifluoromethyl-pyrido[3,4-d]pyrimidin-4-ylamino]-piperidin-3-ol], the IC50 was less than 0.1 µM.

For `CC1(C)CNCC[C@@H]1Nc1nc(-c2ccnc3[nH]c(-c4cccnc4)cc23)nc2cncc(C3CCC3)c12` [Example 367, [5-Cyclobutyl-2-(2-pyridin-3-yl-1H-pyrrolo[2,3-b]pyridin-4-yl)-pyrido[3,4-d]pyrimidin-4-yl]-((S)-3,3-dimethyl-piperidin-4-yl)-amine], the IC50 was less than 0.1 µM.

Regarding `CSc1cc2c(-c3nc(N4CCNCC4)c4c(C5CCC5)cncc4n3)ccnc2[nH]1` [Example 17, 5-Cyclobutyl-2-(2-methylsulfanyl-1H-pyrrolo[2,3-b]pyridin-4-yl)-4-piperazin-1-yl pyrido[3,4-d] pyrimidine], the IC50 is less than 0.1 µM.

As to `CN(c1nc(-c2ccnc3[nH]c(-c4cccnc4)cc23)nc2cncc(C3CC3)c12)[C@H]1CCNCC1(C)C` [Example 385, [5-Cyclopropyl-2-(2-pyridin-3-yl-1H-pyrrolo[2,3-b]pyridin-4-yl)-pyrido[3,4-d]pyrimidin-4-yl]-((S)-3,3-dimethyl-piperidin-4-yl)-methyl-amine], the half-inhibitory concentration (IC50) was less than 0.1 µM.

Take `c1ccc2c(c1)[nH]c1nccc(-c3nc(N4CCC5NCCC54)c4c(C5CCC5)cncc4n3)c12` (stereo not shown) [Example 59, 4-[5-Cyclobutyl-4-(hexahydro-pyrrolo[3,2-b]pyrrol-1-yl)-pyrido[3,4-d]pyrimidin-2-yl]-9H-pyrido[2,3-b]indole]: the IC50 was less than 0.1 µM.

In the case of `C[C@H]1CNCC[C@@H]1Nc1nc(-c2ccnc(Nc3nc(F)ccc3F)c2)nc2cncc(C3CCC3)c12` (single isomer, unassigned) [Example 280, {5-Cyclobutyl-2-[2-(3,6-difluoro-pyridin-2-ylamino)-pyridin-4-yl]-pyrido[3,4-d]pyrimidin-4-yl}-((3S,4S)-3-methyl-piperidin-4-yl)-amine or enantiomer], the IC50 was less than 0.1 µM.

For the molecule `O[C@@H]1CNCC[C@H]1Nc1nc(-c2ccnc(Nc3ncccc3F)c2)nc2cncc(C3CC3)c12` (racemic) [Example 308, rac-(3R,4R)-4-{5-Cyclopropyl-2-[2-(3-fluoro-pyridin-2-ylamino)-pyridin-4-yl]-pyrido[3,4-d]pyrimidin-4-ylamino}-piperidin-3-ol], the half-inhibitory concentration (IC50) lay in the range of 0.1 to 1 µM.

For the molecule `c1ccc2c(c1)[nH]c1nccc(-c3nc(N4CC[C@@H]5CNC[C@@H]54)c4c(C5CCC5)cncc4n3)c12` [Example 9, 4-((R)-5-Cyclobutyl-4-(R)-hexahydro-pyrrolo[3,4-b]pyrrol-1-yl-pyrido[3,4-d]pyrimidin-2-yl)-9H-pyrido[2,3-b]indole], the IC50 was less than 0.1 µM.

For `FC(F)(F)c1cc2c(-c3nc(N4CCCC5NCCCC54)c4c(C5CC5)cncc4n3)ccnc2[nH]1` (stereo not shown) [Example 64, 5-Cyclopropyl-4-(octahydro-[1,5]naphthyridin-1-yl)-2-(2-trifluoromethyl-1H-pyrrolo[2,3-b]pyridin-4-yl)-pyrido[3,4-d]pyrimidine], the IC50 is less than 0.1 µM.

Consider `CC1(C)CNCC[C@@H]1Nc1nc(-c2ccnc(Nc3cccc(C#N)n3)c2)nc2cncc(C3CCC3)c12` [Example 317, 6-{4-[5-Cyclobutyl-4-((S)-3,3-dimethyl-piperidin-4-ylamino)-pyrido[3,4-d]pyrimidin-2-yl]-pyridin-2-ylamino}-pyridine-2-carbonitrile], for which the IC50 was less than 0.1 µM.

As to `C[C@@H]1CNCC[C@H]1Nc1nc(-c2ccnc(Nc3ncccc3F)c2)nc2cncc(C3CCC3)c12` (single isomer, unassigned) [Example 341, 5-Cyclobutyl-2-[2-[(3-fluoro-2-pyridyl)amino]-4-pyridyl]-N-[(3R,4R)-3-methyl-4-piperidyl]pyrido[3,4-d]pyrimidin-4-amine or enantiomer], the half-inhibitory concentration (IC50) is less than 0.1 µM.

`N[C@H]1C[C@H](Nc2nc(-c3ccnc4[nH]c5ccccc5c34)nc3cncc(C4CCC4)c23)C[C@H]1F` (racemic) [Example 207, (±)-(1S,3S,4S)-N*l*-[5-Cyclobutyl-2-(9H-pyrido[2,3-b]indol-4-yl)-pyrido[3,4-d]pyrimidin-4-yl]-4-fluoro-cyclopentane-1,3-diamine]: the IC50 lay in the range of 0.1 to 1 µM.

For the molecule `Cc1cc2c(-c3nc(N4CC[C@H]5NCC[C@H]54)c4c(C5CC5)cncc4n3)ccnc2[nH]1` (racemic) [Example 82, (±)-5-Cyclopropyl-4-(3,6-cis)-hexahydro-pyrrolo[3,2-b]pyrrol-1-yl-2-(2-methyl-1H-pyrrolo[2,3-b]pyridin-4-yl)-pyrido[3,4-d]pyrimidine], the half-maximal inhibitory concentration (IC50) was less than 0.1 µM.
